The text below walks through data of ChEMBL document CHEMBL2007661, “Compounds: GSK PKIS; Assays: UNC Frye lab” (2012).

As a reminder, the inhibition is the relative decrease from the control value, in per cent.

SMILES strings stand for the structures. Values joined by “and” are separate entries in the source; they are usually repeats but may differ in a detail not shown here. Equal values may be shown once.

Assay [1] addresses T1, Inhibitor of nuclear factor kappa-B kinase subunit alpha (Homo sapiens) (UniProt O15111).
T1 sequence (whole entry): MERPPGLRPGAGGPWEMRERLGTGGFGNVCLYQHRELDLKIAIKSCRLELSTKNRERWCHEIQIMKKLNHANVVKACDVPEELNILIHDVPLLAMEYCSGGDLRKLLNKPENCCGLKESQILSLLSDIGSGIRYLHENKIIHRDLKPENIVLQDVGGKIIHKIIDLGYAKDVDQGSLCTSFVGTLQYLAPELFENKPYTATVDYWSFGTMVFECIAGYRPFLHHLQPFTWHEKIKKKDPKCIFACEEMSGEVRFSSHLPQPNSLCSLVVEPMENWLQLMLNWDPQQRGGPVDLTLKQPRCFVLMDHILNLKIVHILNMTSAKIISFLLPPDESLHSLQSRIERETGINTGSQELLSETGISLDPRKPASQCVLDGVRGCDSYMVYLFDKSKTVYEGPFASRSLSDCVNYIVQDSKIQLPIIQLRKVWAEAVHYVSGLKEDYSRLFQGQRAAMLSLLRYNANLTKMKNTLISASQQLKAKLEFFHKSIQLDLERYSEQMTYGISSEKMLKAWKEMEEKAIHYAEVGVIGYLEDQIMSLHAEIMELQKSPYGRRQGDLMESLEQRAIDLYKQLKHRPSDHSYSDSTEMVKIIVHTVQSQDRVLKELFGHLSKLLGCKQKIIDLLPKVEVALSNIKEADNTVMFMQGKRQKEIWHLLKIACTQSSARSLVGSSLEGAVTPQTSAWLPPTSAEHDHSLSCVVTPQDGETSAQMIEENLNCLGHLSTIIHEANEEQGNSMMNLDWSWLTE
To be noted: at 1 µM.

The target in assay [2] is T2, Serine/threonine-protein kinase TBK1 (Homo sapiens) (UniProt Q9UHD2).
T2 sequence (whole entry): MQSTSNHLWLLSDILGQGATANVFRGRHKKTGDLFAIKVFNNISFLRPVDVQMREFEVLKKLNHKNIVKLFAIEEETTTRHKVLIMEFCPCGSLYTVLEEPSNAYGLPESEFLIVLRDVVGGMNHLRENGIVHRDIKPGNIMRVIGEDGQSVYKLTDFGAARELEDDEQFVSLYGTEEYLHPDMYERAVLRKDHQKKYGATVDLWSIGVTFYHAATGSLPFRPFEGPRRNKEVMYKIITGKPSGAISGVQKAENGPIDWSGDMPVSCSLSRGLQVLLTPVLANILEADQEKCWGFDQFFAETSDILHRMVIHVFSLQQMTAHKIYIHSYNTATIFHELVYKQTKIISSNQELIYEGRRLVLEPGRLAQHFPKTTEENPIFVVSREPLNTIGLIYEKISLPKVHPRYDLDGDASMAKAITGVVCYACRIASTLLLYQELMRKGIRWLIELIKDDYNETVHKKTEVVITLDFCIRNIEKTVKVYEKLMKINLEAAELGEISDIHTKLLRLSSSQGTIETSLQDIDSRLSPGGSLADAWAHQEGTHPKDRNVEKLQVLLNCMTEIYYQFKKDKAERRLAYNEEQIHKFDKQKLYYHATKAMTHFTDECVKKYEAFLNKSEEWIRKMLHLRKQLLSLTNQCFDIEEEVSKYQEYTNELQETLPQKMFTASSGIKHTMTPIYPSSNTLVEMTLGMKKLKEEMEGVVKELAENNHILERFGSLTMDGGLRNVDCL
To be noted: at 1 µM.

For the molecule `CNC(=O)c1sc(-n2cnc3cc(OC)c(OC)cc32)cc1OCc1ccccc1C(F)(F)F`, the inhibition is 2% and 4% in assay [1]; 3% and 2% in assay [2].

Take `N#Cc1c(NC(=O)c2cccc3ccccc23)sc2c1CCCC2`: the inhibition is 2% and -1% in assay [1]; -4% and -3% in assay [2].

Take `Fc1cccc(COc2ccc(Nc3ncnc4sc(-c5cccs5)cc34)cc2Cl)c1`: the inhibition was -2% and 0% in assay [1]; -3% and -2% in assay [2].

With `NS(=O)(=O)c1ccc(N/N=C2\C(=O)Nc3ccc(C(=O)NCCc4c[nH]cn4)cc32)cc1`, the inhibition in assay [1] was 7% and 3%; in assay [2] it was 32% and 29%.

`COc1ccc(-c2coc3ncnc(N)c23)cc1`: the inhibition in assay [1] is 0% and 1%; in assay [2], -7% and -5%.

With `NC(=O)Cc1ccccc1Oc1nccc(-c2c(-c3ccc(F)cc3)ncn2C2CCNCC2)n1`, the inhibition in assay [1] was 2% and 3%; in assay [2], -1% and -2%.

For the molecule `CCCN1CCC(Oc2cc(Nc3nc(Nc4cccc(F)c4C(N)=O)c4cc[nH]c4n3)c(OC)cc2Cl)CC1`, the inhibition in assay [1] was -1% and 2%; in assay [2], 0% and -3%.

Turning to `COc1cccc(/C=N/Nc2ncnc3c2cnn3-c2cccc(OC)c2)c1`, the inhibition was 2% and 21% in assay [1]; 2% and 1% in assay [2].

As to `COc1ccc2ncn(-c3cc(O[C@H](C)c4ccccc4Cl)c(C(N)=O)s3)c2c1`, the inhibition in assay [1] was 1% and -8%; in assay [2], 0% and -4%.

On to `COC(=O)c1sc(-n2cnc3cc(OC)c(OC)cc32)cc1OCc1ccccc1C(F)(F)F`, for which the inhibition in assay [1] was -1% and 0%; in assay [2] it was 37% and 39%.

On to `COc1cc(N2CCN(C(C)C)CC2)ccc1Nc1nc(Nc2ccc(F)cc2C(N)=O)c2cc[nH]c2n1`, for which the inhibition in assay [1] was 3%; in assay [2], 16% and 10%.

For the molecule `c1ccc(-c2n[nH]cc2-c2ccnc(-c3ccc(OCCn4ccnc4)cc3)c2)nc1`, the inhibition was 0% and -1% in assay [1]; -4% and -3% in assay [2].

`Fc1cccc(COc2ccc(Nc3ncnc4sc(-c5ccco5)cc34)cc2Cl)c1`: the inhibition was 14% and 0% in assay [1]; 41% and 42% in assay [2].

Turning to `O=C(O[C@H]1CN[C@H](C#Cc2cc3ncnc(Nc4ccc(OCc5cccc(F)c5)c(Cl)c4)c3s2)C1)N1CCOCC1`, the inhibition in assay [1] was -1% and 0%; in assay [2], 1% and 3%.

Regarding `CCN1CCC(C(=O)Nc2n[nH]c3nnc(-c4cccc(F)c4F)cc23)CC1`, the inhibition in assay [1] was 4% and 3%; in assay [2], -3% and -6%.

`COc1ccc2ncn(-c3cc(O[C@H](C)c4ccccc4C(F)(F)F)c(C(N)=O)s3)c2c1`: the inhibition is 0% and -1% in assay [1]; -8% and -6% in assay [2].

For the molecule `NS(=O)(=O)c1cccc(-c2ccc3c(NC(=O)C4CC4)n[nH]c3c2)c1`, the inhibition in assay [1] was 1% and 2%; in assay [2] it was 2% and 1%.

Take `CS(=O)(=O)CCNCc1ccc(-c2ccc3ncnc(Nc4ccc(OCc5ccccc5)c(Br)c4)c3c2)o1`: the inhibition in assay [1] was 3% and 2%; in assay [2], 0% and 1%.

In the case of `CCn1c(-c2nonc2N)nc2cncc(C(=O)N3CCNCC3)c21`, the inhibition is 2% and 0% in assay [1]; 3% and 0% in assay [2].

Regarding `Nc1nccc(-c2c(-c3ccc(F)cc3)ncn2CCCN2CCOCC2)n1`, the inhibition was 6% and 5% in assay [1]; 0% and 1% in assay [2].

With `COC(=O)c1cncc(/C=C/c2c(C)cc(O)cc2C)c1`, the inhibition is 3% and 2% in assay [1]; -1% and 2% in assay [2].

In the case of `Nc1ncc(-c2cccc(S(N)(=O)=O)c2)c2scc(-c3ccc(F)c(Cl)c3)c12`, the inhibition in assay [1] is -2%; in assay [2], 0%.

`CC1=C(C(=O)Nc2ccc3[nH]nc(C)c3c2)C(c2ccc(C(F)(F)F)cc2)CC(=O)N1` (configuration not stated): the inhibition is 4% and 5% in assay [1]; -5% and -3% in assay [2].

As to `NS(=O)(=O)c1cccc(Nc2cc(-c3ccc(F)cc3)n[nH]2)c1`, the inhibition in assay [1] is 0% and -3%; in assay [2], 23% and 21%.

Regarding `Cc1ccc(C(=O)NC2CCC2)cc1-c1ccc(C(=O)NCC2CC2)cc1`, the inhibition is 4% in assay [1]; -4% and -6% in assay [2].

Regarding `Clc1ccc(CNc2nccc(-c3cnn4ncccc34)n2)cc1`, the inhibition in assay [1] was -1%; in assay [2] it was -1% and 0%.

For `c1ccc(COc2ccc(Nc3ncnc4ccc(-c5ccco5)cc34)cc2)cc1`, the inhibition in assay [1] was 3% and 2%; in assay [2] it was -3% and -2%.

Regarding `Nc1nonc1-c1nc2cnccc2n1C1CCCCC1`, the inhibition is 39% and 36% in assay [1]; 36% and 37% in assay [2].

In the case of `COc1ccc(-c2nn3ncccc3c2-c2ccnc(Nc3cccc(C(F)(F)F)c3)n2)cc1`, the inhibition is 2% in assay [1]; -2% and 0% in assay [2].

Take `COc1ccc(-c2ccncc2)cc1C(N)=O`: the inhibition in assay [1] is -5% and -4%; in assay [2], 4% and 3%.

In the case of `CS(=O)(=O)CCNCc1ccc(-c2ccc3ncnc(Nc4ccc(OCc5cccc(C(F)(F)F)c5)cc4)c3c2)o1`, the inhibition in assay [1] is -1% and 0%; in assay [2], -3% and -1%.

Take `CCn1c(-c2nonc2N)nc2c(C#CCN)ncc(OCCCN)c21`: the inhibition was 22% in assay [1]; 1% and 4% in assay [2].

On to `COc1cc(Nc2nccc(Nc3ccc4c(C)n[nH]c4c3)n2)cc(OC)c1OC`, for which the inhibition in assay [1] was -1% and -2%; in assay [2] it was 33% and 30%.

As for `COc1ccc(-c2ccc3c(NC(=O)C4CC4)n[nH]c3n2)cc1`, the inhibition in assay [1] was 1% and 2%; in assay [2] it was 4% and 5%.

On to `NS(=O)(=O)c1ccc(-c2cc3ccncc3cc2OCc2ccccc2)cc1`, for which the inhibition in assay [1] is 1%; in assay [2], -1% and 0%.

As to `NC(=O)c1cccc(Nc2nccc(Nc3cccc(F)c3)n2)c1`, the inhibition was 4% and 2% in assay [1]; 6% and 11% in assay [2].

Turning to `CS(=O)(=O)CCNCc1ccc(-c2ccc3ncnc(Nc4ccc(OCc5cccc(F)c5)c(C(F)(F)F)c4)c3c2)o1`, the inhibition in assay [1] is -3% and -2%; in assay [2], 3% and 1%.

As to `CCc1cccc(CC)c1/C=C/c1cncc(C(=O)NC)c1`, the inhibition in assay [1] was 2% and 1%; in assay [2] it was 0% and -2%.

On to `N#Cc1c(NC(=O)c2ccc(F)cc2)sc2c1CCCC2`, for which the inhibition in assay [1] was 0% and 2%; in assay [2] it was -4% and -6%.

With `FC(F)(F)c1cccc(Nc2nccc(-c3cnn4nc(-c5ccccc5)ccc34)n2)c1`, the inhibition was -5% and -4% in assay [1]; 17% and 7% in assay [2].

As for `COc1cc(Nc2nccc(-c3cnn4ncccc34)n2)cc(OC)c1`, the inhibition was -4% and -2% in assay [1]; 38% and 33% in assay [2].

`O=C(O[C@H]1CN[C@H](C#Cc2cc3ncnc(Nc4ccc(Cc5ccccc5)cc4)c3s2)C1)N1CCOCC1`: the inhibition in assay [1] was -7%; in assay [2], 14% and 20%.

In the case of `NC(=O)c1sc(-n2cnc3ccccc32)cc1OCc1ccccc1Br`, the inhibition was 0% and -1% in assay [1]; 0% and 3% in assay [2].

Consider `COc1cc2ncn(-c3cc(O[C@@H](C)c4ccccc4Cl)c(C(N)=O)s3)c2cc1OC`, for which the inhibition in assay [1] is 0% and 1%; in assay [2], 54% and 57%.

As to `COc1ccc(-c2nn3ncccc3c2-c2ccnc(Nc3ccc(F)c(F)c3)n2)cc1`, the inhibition in assay [1] was 8% and 4%; in assay [2], -6% and -9%.

For the molecule `Nc1nc(-c2cccc(Cl)c2)c(-c2ccc3ncccc3n2)s1`, the inhibition in assay [1] was 3% and -7%; in assay [2], 5% and 7%.

For the molecule `COC(=O)Nc1nc2cc(Oc3ccc(NC(=O)Nc4cccc(Br)c4)cc3)ccc2[nH]1`, the inhibition in assay [1] was 2% and 0%; in assay [2] it was 0% and 2%.

For `C#Cc1cccc(Nc2ncnc3ccc(OCCCCNCCS(C)(=O)=O)cc23)c1`, the inhibition in assay [1] is 3%; in assay [2], -4% and 0%.

For the molecule `COc1cc2c(cc1Nc1nc(Nc3ccsc3C(N)=O)c3cc[nH]c3n1)N(C(=O)CN(C)C)CCC2(C)C`, the inhibition in assay [1] was 1% and 2%; in assay [2], 57% and 54%.

In the case of `Cc1ccc2c(c1)/C(=N/Nc1ccc(S(N)(=O)=O)cc1)C(=O)N2`, the inhibition in assay [1] was 9% and -3%; in assay [2] it was -2% and 3%.

For `Nc1nccc(-c2c(-c3ccc(F)cc3)ncn2C2CCC(O)CC2)n1` (configuration not stated), the inhibition in assay [1] is 4% and 10%; in assay [2], 0% and -2%.
